{"source": "paper PMC2119337", "about": "(The Journal of Experimental Medicine, 1992)", "key": {"(PL/J x SJL/J)F1 mice [1]": {"test_system": "(PL/J x SJL/J)F1 mice", "experiment": "Inhibition of EAE by coimmunization of competitor peptide with Ac1-11", "assay_type": "in vivo", "settings": "Table 2, Ac1-11 25 nmol alone or with competitor 500 nmol"}, "(PL/J x SJL/J)F1 mice [2]": {"test_system": "(PL/J x SJL/J)F1 mice", "assay_type": "in vivo", "settings": "Table 1, observed 30-35 d, three experiments"}, "[3]": {"target": "T1, A alpha uA beta u (MHC class II molecules) (Mus musculus, UniProt P06344+P14438)", "T1 sequence (P14438 1-227)": "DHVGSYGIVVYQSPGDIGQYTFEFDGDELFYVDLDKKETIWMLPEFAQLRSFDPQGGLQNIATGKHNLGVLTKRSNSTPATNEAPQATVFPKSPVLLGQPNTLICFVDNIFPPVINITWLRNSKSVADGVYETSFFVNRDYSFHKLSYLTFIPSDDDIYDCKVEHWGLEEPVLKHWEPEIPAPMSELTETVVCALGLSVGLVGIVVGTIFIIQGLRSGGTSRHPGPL", "T1 sequence (P06344 28-263)": "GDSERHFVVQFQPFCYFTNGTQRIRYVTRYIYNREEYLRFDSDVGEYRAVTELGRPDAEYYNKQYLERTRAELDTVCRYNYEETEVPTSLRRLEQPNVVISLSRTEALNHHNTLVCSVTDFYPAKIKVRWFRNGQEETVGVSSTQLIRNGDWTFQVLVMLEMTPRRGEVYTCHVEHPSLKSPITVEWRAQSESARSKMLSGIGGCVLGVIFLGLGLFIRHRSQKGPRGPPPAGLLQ", "settings": "cited from earlier work"}}, "note": "No end group written: not given here.", "data": [{"substance": "Ac1-11: immunodominant N-terminal myelin basic protein (MBP) peptide, wild type (Ac-MGNHSGKRELS; UniProt P04370 1-11, looked up, fragment)", "values": [{"measurement": "Day of onset", "setting": "(PL/J x SJL/J)F1 mice [1]", "value": 12.75}, {"measurement": "Mean clinical scores", "setting": "(PL/J x SJL/J)F1 mice [1]; grades 1-5", "value": 3.4}, {"measurement": "Incidence of EAE (mice with disease/total)", "setting": "(PL/J x SJL/J)F1 mice [2]; 100 nmol peptide in CFA s.c.", "value": "27/31"}, {"measurement": "Percent incidence of EAE", "setting": "(PL/J x SJL/J)F1 mice [2]; […]", "value": 87, "unit": "%"}, {"measurement": "Binding to AαuAβu", "setting": "[3]", "value": "poor binder"}]}]}
